Consider three substances from PMC10761119, “Phosphorylation-state dependent intraneuronal sorting of Aβ differentially impairs autophagy and the endo-lysosomal system” (Autophagy, 2023).

Experiment [1] relates to SH-SY5Y cells. Put plainly: Quantitative western immunoblotting of autophagy and endo-lysosomal proteins. In kind it is cell-based, human. The following applies: Aβ 1 µM, 24 h, n = 6, N = 3. The protocol:
SH-SY5Y cells seeded on D1, were treated with Aβ variants (1 μM) on D3 in DMEM/F-12 media without serum and antibiotics. Control treatment included treatment with equal volume of 10 mM NaOH solution used for preparing the Aβ stock solutions, in respective cell culture medium. SH-SY5Y cells, after 16 h of transient expression of the reporter constructs, were treated with different Aβ variants, autophagy modulator substrates and respective controls in DMEM/F-12, FCS^− PS^− media for the mentioned time points. After treatment, cells were washed twice with PBS and with 0.025% trypsin-EDTA in PBS to get rid of cell bound Aβ, followed by subsequent washings with PBS again. Cells were either collected by scraping using a cell-scraper or fixed with 4% PFA-PBS for 15 min at RT, for further immunocytochemistry experiments. Collected treatment media was centrifuged at 1000 g for 5 min, pellet discarded and supernatant frozen at −20°C until further usage.
Cells were collected by scraping and mechanically homogenized in hypotonic D buffer (10 mM Tris-HCl, pH 7.4, 10 mM NaCl, 0.1 mM EGTA, 25 mM glycerol 2-phosphate, 1 mM DTT) containing protease and phosphatase inhibitors by repeated suspension through a 23 G × 1” needle. Post-nuclear supernatant (PNS) was collected by centrifugation of the mechanically homogenized cellular material at 2,000 g for 5 min. The pellet was the nuclear material. Nuclear pellet was then resuspended in Buffer C (5 mM HEPES, 1.5 mM MgCl2, 0.2 mM EDTA, 0.5 mM DTT, 0.05% NP40 [Sigma Aldrich, 18876], 30% glycerol, pH 7.9) containing protease and phosphatase inhibitors, ultrasonicated at minimum voltage, three currents in four cycles, followed by repetitive cooling of samples on ice. The nuclear fraction was the supernatant collected after centrifugation at 16,100 g for 15 min. The PNS collected from the first step was centrifuged at 16,100 g for 60 min, and supernatant was used as the crude cytosolic fraction. The pellet contained the membrane materials, which were re-homogenized in hypotonic D buffer and again centrifuged at 16,100 g for 60 min. The supernatant was discarded, pellet was resuspended in STEN-lysis buffer (20 mM Tris-HCl, pH 7.5, 150 mM NaCl, 1 mM EDTA, 1 mM EGTA, 1% Triton X-100, 2.5 mM sodium pyrophosphate [Sigma Aldrich, P1835], 1 mM β-glycerophosphate [Sigma Aldrich, G9422]) containing protease and phosphatase inhibitors, and the membrane fraction was the supernatant collected after centrifugation at 16,100 g for 15 min. The crude cytosolic fraction was then further fractionated at 100,000 g for 70 min at 4°C under vacuum. The resultant supernatant was the soluble cytosolic fraction. The pellet was resuspended in STEN lysis buffer and centrifuged at 16,100 g for 15 min. The resultant supernanant represented the insoluble cytosolic fraction.
For different cellular fractions prepared as described earlier, the protein content was estimated using the standard Pierce™ BCA protein assay kit (ThermoFisher Scientific, 23225). For direct comparison between the samples, equal amount of protein was loaded. Samples were dissolved in Laemmli buffer and were boiled at 95°C for 5 min. They were loaded on a precast 4–12% NuPage® Bis-Tris gels (Life technologies, NP033–5/6, WG140–2/3). Gels and prestained protein molecular weight markers were purchased from Life technologies. The separated proteins were electro-transferred onto a 0.2-μm nitrocellulose (NT) membrane (Amersham, 1060001) for 1 h 45 min. After blotting, the NT membranes were boiled in PBS for 10 min. Ponceau staining was done to monitor protein loading of samples. The blots were then incubated in 5% skim milk in TBS-T (TBS [50 mM Tris-HCl, pH 7.5, 150 mM NaCl] containing 0.1% Tween 20 [Sigma Aldrich, P1379]) for 1 h at RT. Blots were incubated overnight at 4°C in the primary antibody solution (respective dilutions in TBS-T, Table 1). Blots were washed and incubated with appropriate secondary antibodies conjugated either with HRP or fluorescent dyes for 1 h. […]
Background: A western blot detects proteins with antibodies after separation by electrophoresis.

The test system of experiment [2] is primary cortical neurons. Put plainly: Immunocytochemistry of surface associated and internalized Aβ. The following applies: Aβ 500 nM, 4 h; antibody 82E1; ~200 neurons, N = 4. Format: cell-based, mouse.
The test system of experiment [3] is primary cortical neurons. Put plainly: Immunocytochemistry colocalization of internalized Aβ with vesicular markers (Mander's overlap coefficient). In kind it is cell-based, mouse. The following applies: Aβ 500 nM, 4 h, mean ± S.D., n = 6, N = 3; for Mander's overlap coefficient, R, with EEA1-positive vesicles: Aβ stained with 82E1.
Experiment [4] relates to CTSD and CTSE in SH-SY5Y cells. As to the kind of experiment: CTSD and CTSE activity assay with fluorogenic substrate. In kind it is cell-based, human. The following applies: Aβ 1 µM, 24 h, per µg total cellular protein, compared to control cells. The protocol:
Cells were seeded in a 96-well plate (12000 cells/well, D1) and treated with different Aβ variants (primary cortical neurons, DIV14–500 nM, 4 h; SH-SY5Y cells, D3–1 μM, 24 h) in neurobasal, FCS-/PS- media. After the treatment, the supernatant was discarded, and cells were washed with PBS once. Cells were lysed by solubilizing the plasma membrane and intracellular membranes by adding 50 μL of 200 μg/mL digitonin in acetate buffer to the wells followed by incubation on ice for 15 min. Additionally, 50 μL of the Omnicathepsin D & E fluorogenic substrate (Enzo Life sciences, BML-P145) in sodium acetate buffer was added to the lysates in the wells for a final concentration of 30 μM of substrate and 10 mM DTT. Plate was incubated for 25 min at RT and the reaction was stopped by addition of 10 µl of ethanol. The relative amount of substrate cleavage in each well was computed using multiplate reader at λEx 380 nm and λEm 460 nm. Values were normalized and represented as fold-change with respect to control cells. Graphs in Figure 7G and S7F represent data from 3 independent experiments (n = 9).

On to “amyloid-β phosphorylated at serine residue 8 [p-Ser8Aβ]”, for which, in experiment [1] (western immunoblot vs control), the “ATG1-ULK1 kinase complex level” value is “not”, the EEA1 level result is “increased” and the RAB5 level result is recorded as “increased”. In experiment [1] (western immunoblot, compared to control cells), the “Levels of LC3-I and II” value is on record as “significantly increased levels”. The “Fluorescence intensities of Aβ signals in unpermeabilized and permeabilized cells (binding to neuronal membranes and intraneuronal accumulation)” value (shortened to “Fluorescence intensities of Aβ signals”) in experiment [2] was “highest fluorescence intensities”. Moreover, in experiment [3], the “Mander's overlap coefficient, R, with EEA1-positive vesicles” value worked out at 0.58 ± 0.18; the “Mander's overlap coefficient, R, with CTSD” value was determined as 0.30 ± 0.06; the “Mander's overlap coefficient, R, with LAMP2” value came to 0.33 ± 0.08; the “Mander's overlap coefficient, R, with LC3-positive vesicles” value turned out to be 0.64 ± 0.21. The “Mander's overlap coefficient, R, with RAB7-positive late endosomes” value in experiment [3] worked out at 0.33 ± 0.05. Moreover, the “Activity of lysosomal CTSD and CTSE” value in experiment [4] was “no significant effect”.

For “amyloid-β phosphorylated at serine residue 26 [p-Ser26Aβ]”, in experiment [1] (PNS fraction), the “Intracellular levels of the ATP6V0A1 subunit of the V-ATPase” value is listed as “significantly increased levels”. Also, the “Levels of nuclear transcription factor EB (TFEB)” value in experiment [1] (nuclear material) is “significantly increased levels”. Besides, in experiment [1] (western immunoblot vs control), the “ATG1-ULK1 kinase complex level” value was “increased”, the CTSD level result is “selectively increased”, the EEA1 level result is “no significant effect” and the LAMP2 level result was “selectively increased”. Moreover, in experiment [1] (western immunoblot vs control), the RAB5 level entry was “increased”, the RAB7 level entry was “strongest effects” and the RAB11 level entry was “strongest effects”. Moreover, the “Fluorescence intensities of Aβ signals” value in experiment [2] is “followed by p-Ser26Aβ”. In experiment [3], the “Mander's overlap coefficient, R, with EEA1-positive vesicles” value is on record as 0.51 ± 0.14; the “Mander's overlap coefficient, R, with CTSD” value was 0.65 ± 0.10; the “Mander's overlap coefficient, R, with LAMP2” value came to 0.65 ± 0.13; the “Mander's overlap coefficient, R, with LC3-positive vesicles” value was 0.52 ± 0.09. Moreover, the “Mander's overlap coefficient, R, with RAB7-positive late endosomes” value in experiment [3] is 0.62 ± 0.15. For the same substance, the “Activity of lysosomal CTSD and CTSE” value in experiment [4] was “increased activity”.

“non-phosphorylated amyloid-β [npAβ, reference compound]”: in experiment [1] (western immunoblot vs control), the “ATG1-ULK1 kinase complex level” value is on record as “increased”, the ATG3 level result was “not”, the EEA1 level result was “no significant” and the RAB5 level result is listed as “no significant”. For the same substance, in experiment [1] (western immunoblot vs control), the RAB7 level result is given as “no significant” and the RAB11 level entry is recorded as “smallest effect”. Besides, in experiment [2], the “Fluorescence intensities of Aβ signals” value is reported as “least”. Also, in experiment [3], the “Mander's overlap coefficient, R, with EEA1-positive vesicles” value was 0.43 ± 0.15; the “Mander's overlap coefficient, R, with CTSD” value came to 0.47 ± 0.09; the “Mander's overlap coefficient, R, with LAMP2” value worked out at 0.45 ± 0.12; the “Mander's overlap coefficient, R, with LC3-positive vesicles” value is given as 0.47 ± 0.09. The “Mander's overlap coefficient, R, with RAB7-positive late endosomes” value in experiment [3] worked out at 0.44 ± 0.10.
